Holding throughout (type): functional
What all share (conditions): read-out: GI

For assay [1], the system named is HCT-116. Nature of the assay: Anticancer activity against human HCT-116 cells assessed as cell growth inhibition at 10 uM incubated for 48 hrs by SRB assay relative to control.
Assay [2] relates to BT-549. Nature of the assay: Anticancer activity against human BT-549 cells assessed as cell growth inhibition at 10 uM incubated for 48 hrs by SRB assay relative to control.
Assay [3] relates to HL-60(TB). The assay is described as follows: Anticancer activity against human HL-60(TB) cells assessed as cell growth inhibition at 10 uM incubated for 48 hrs by SRB assay relative to control. (In general: Sulforhodamine B stains cellular protein and so reports cell mass.)
Assay [4] concerns HCT-15. Nature of the assay: Anticancer activity against human HCT-15 cells assessed as cell growth inhibition at 10 uM incubated for 48 hrs by SRB assay relative to control.
Assay [5] concerns LOX IMVI. The assay is described as follows: Anticancer activity against human LOX IMVI cells assessed as cell growth inhibition at 10 uM incubated for 48 hrs by SRB assay relative to control.
Assay [6] has as its system OVCAR-4. The assay is described as follows: Anticancer activity against human OVCAR-4 cells assessed as cell growth inhibition at 10 uM incubated for 48 hrs by SRB assay relative to control.
For assay [7], the system named is SF-268. Nature of the assay: Anticancer activity against human SF-268 cells assessed as cell growth inhibition at 10 uM incubated for 48 hrs by SRB assay relative to control.
The subject of assay [8] is SR. Nature of the assay: Anticancer activity against human SR cells assessed as cell growth inhibition at 10 uM incubated for 48 hrs by SRB assay relative to control.
Assay [9] relates to MDA-MB-231. Nature of the assay: Anticancer activity against human MDA-MB-231 cells assessed as cell growth inhibition at 10 uM incubated for 48 hrs by SRB assay relative to control.
In assay [10] the test system is NCI/ADR-RES. Nature of the assay: Anticancer activity against human NCI/ADR-RES cells assessed as cell growth inhibition at 10 uM incubated for 48 hrs by SRB assay relative to control.
Assay [11] has as its system TK-10. Nature of the assay: Anticancer activity against human TK-10 cells assessed as cell growth inhibition at 10 uM incubated for 48 hrs by SRB assay relative to control.
The subject of assay [12] is SNB-75. The assay is described as follows: Anticancer activity against human SNB-75 cells assessed as cell growth inhibition at 10 uM incubated for 48 hrs by SRB assay relative to control.
Assay [13] relates to SN12C. Nature of the assay: Anticancer activity against human SN12C cells assessed as cell growth inhibition at 10 uM incubated for 48 hrs by SRB assay relative to control.
Assay [14] concerns ACHN. The assay is described as follows: Anticancer activity against human ACHN cells assessed as cell growth inhibition at 10 uM incubated for 48 hrs by SRB assay relative to control.
Assay [15] has as its system MOLT-4. The assay is described as follows: Anticancer activity against human MOLT-4 cells assessed as cell growth inhibition at 10 uM incubated for 48 hrs by SRB assay relative to control.
For assay [16], the system named is IGROV-1. Nature of the assay: Anticancer activity against human IGROV-1 cells assessed as cell growth inhibition at 10 uM incubated for 48 hrs by SRB assay relative to control.
Assay [17] concerns RXF 393. The assay is described as follows: Anticancer activity against human RXF 393 cells assessed as cell growth inhibition at 10 uM incubated for 48 hrs by SRB assay relative to control.
The test system of assay [18] is 786-0. Nature of the assay: Anticancer activity against human 786-0 cells assessed as cell growth inhibition at 10 uM incubated for 48 hrs by SRB assay relative to control.
Assay [19] concerns OVCAR-5. Nature of the assay: Anticancer activity against human OVCAR-5 cells assessed as cell growth inhibition at 10 uM incubated for 48 hrs by SRB assay relative to control.
The subject of assay [20] is SK-MEL-28. Nature of the assay: Anticancer activity against human SK-MEL-28 cells assessed as cell growth inhibition at 10 uM incubated for 48 hrs by SRB assay relative to control.

In the case of `CCCCc1nc(/C=N/Nc2nc(Nc3ccccc3)nc(Nc3ccc(S(N)(=O)=O)cc3)n2)c(Cl)[nH]1`, the inhibition of growth at 10 µM was less than 10% in assay [1]; 52% in assay [2]; less than 10% in assay [3]; less than 10% in assay [4]; 58% in assay [5]; 19% in [6]. For the same molecule, the inhibition of growth at 10 µM is 34% in assay [7]; 88% in assay [8]; 33% in [9]; less than 10% in assay [10]; less than 10% in [11]; less than 10% in assay [12]. Besides, the inhibition of growth at 10 µM was less than 10% in assay [13]; less than 10% in assay [14]; 58% in assay [15]; less than 10% in assay [16]; less than 10% in [17]; less than 10% in assay [18]. Further, the inhibition of growth at 10 µM was less than 10% in assay [19] and 28% in [20].

As for `NS(=O)(=O)c1ccc(Nc2nc(N/N=C/c3ccc4c(c3)OCO4)nc(Nc3ccccc3)n2)cc1`, the inhibition of growth at 10 µM in assay [1] is 63%; in assay [2], 23%; in assay [3], 68%; in [4], 17%; in assay [5] it was 73%; in assay [6], 44%. Besides, the inhibition of growth at 10 µM was 57% in assay [7]; 79% in [8]; 40% in assay [9]; less than 10% in [10]; less than 10% in [11]; 46% in assay [12]. Further, the inhibition of growth at 10 µM in [13] came to 45%; in assay [14], 42%; in assay [15], 88%; in assay [16], 63%; in assay [17], 77%; in [18], 38%. Further, the inhibition of growth at 10 µM in assay [19] is less than 10%; in assay [20] it was 32%.

Regarding `NS(=O)(=O)c1ccc(Nc2nc(N/N=C/c3ccc([N+](=O)[O-])cc3)nc(Nc3ccccc3)n2)cc1`, the inhibition of growth at 10 µM came to 83% in [1]; 81% in [2]; 64% in assay [3]; 13% in assay [4]; 120% in [5]; 44% in [6]. Also, the inhibition of growth at 10 µM is 73% in assay [7]; 84% in assay [8]; 54% in assay [9]; less than 10% in [10]; less than 10% in [11]; 54% in assay [12]. Further, the inhibition of growth at 10 µM in [13] amounted to 72%; in [14], 17%; in [15], 88%; in assay [16] it was 47%; in assay [17], 105%; in assay [18], 91%. The inhibition of growth at 10 µM is 18% in assay [19] and 64% in assay [20].
